{"source": "patent US20180272346A1", "about": "“MODULAR ORGAN MICROPHYSIOLOGICAL SYSTEM WITH MICROBIOME” (Massachusetts Institute of Technology, priority 2017, published 2018)", "origin": "cited, not measured here", "key": {"[1]": {"tested_on": "immune-competent liver MPS (hepatocytes and Kupffer cells)"}, "[2]": {"settings": "oral, in vivo; read-out: maximum measured plasma concentration, Cmax"}, "[3]": {"tested_on": "7-way MPS platform (gut, liver and other MPSs)"}, "[4]": {"tested_on": "human hepatocytes and kupffer cells co-culture"}, "[5]": {"tested_on": "immune-competent gut MPS (Caco2, HT29-MTX, dendritic cells)"}, "[6]": {"tested_on": "immune-competent gut-liver interacted MPS", "settings": "tolcapone added to gut MPS (\"oral\")"}}}
{"molecule": "O=C(O)Cc1ccccc1Nc1c(Cl)cccc1Cl", "note": "[Diclofenac, diclofenac]", "values": [{"measurement": "cell death", "setting": "[1]", "result": "minimal"}, {"measurement": "function and cellular death", "setting": "endometrium MPS", "result": "loss of function correlating with cellular death"}, {"measurement": "Cmax", "setting": "[2]", "result": "2 to 6", "unit": "µM"}, {"measurement": "absorption and distribution across MPS compartments", "setting": "[3]", "result": "absorbed across the gut epithelial barrier"}, {"measurement": "unbound intrinsic clearance (CL_int(u))", "setting": "[3]; diclofenac added to apical side of gut MPS, estimated", "result": 13.90, "unit": "µL/min"}, {"measurement": "fraction of clearance towards formation of the 4-OH-DCF metabolite", "setting": "[3]; estimated", "result": "approximately 19%"}]}
{"molecule": "C[C@]12CCC(=O)C=C1CC[C@@H]1[C@@H]2[C@@H](O)C[C@@]2(C)[C@H]1CC[C@]2(O)C(=O)CO", "note": "[Hydrocortisone (cortisol), Hydrocortisone]", "values": [{"measurement": "differentiated function", "setting": "[4]; cocultured liver MPS", "result": "enhanced"}, {"measurement": "inflammatory response", "setting": "[4]; cocultured liver MPS", "result": "suppressed"}, {"measurement": "CYP450 activity", "setting": "[4]; cultures up to 21 days", "result": "sensitive to hydrocortisone levels"}]}
{"molecule": "Cc1ccc(C(=O)c2cc(O)c(O)c([N+](=O)[O-])c2)cc1", "note": "[Tolcapone]", "values": [{"measurement": "cell death", "setting": "[1]", "result": "caused cell death"}, {"measurement": "mitochondrial activity", "setting": "[1]", "result": "decreased"}, {"measurement": "cell death", "setting": "[5]", "result": "severe cellular death"}, {"measurement": "epithelial function", "setting": "[5]", "result": "complete loss of epithelial function"}, {"measurement": "function and cellular death", "setting": "endometrium MPS", "result": "loss of function correlating with cellular death"}, {"measurement": "MPS-specific cell death markers", "setting": "[6]", "result": "suffered from MPS-specific cell death markers"}, {"measurement": "generic cell death marker", "setting": "[6]", "result": "insensitive"}, {"measurement": "gut and liver MPS function", "setting": "[6]", "result": "MPS-specific loss of function"}]}
{"molecule": "Lipopolysaccharide [Lipopolysaccharide (LPS)]", "values": [{"measurement": "lowest LPS stimulus the co-cultures were responsive to", "setting": "[4]; hepatocyte-Kupffer co-culture", "result": 0.01, "unit": "µg/mL"}]}
